Experimental findings from patent publication US9233077B2, “Delayed release cysteamine bead formulation, and methods of making and using same” (RAPTOR PHARMACEUTICALS INC., priority 2013, dated 2016) are described below.

This data set in a line: Plasma protein binding of cysteamine. In kind it is in vitro ADME. Particulars: human plasma proteins, predominantly albumin.

One may read the fraction unbound as the share of the substance not bound to proteins or other matrix.

In the case of `NCCS` [cysteamine], the fraction unbound is approximately 0.48.
